Laboratory results as given in patent US10045962B2 (priority 2014, dated 2018).
Counter-ions that a name gives are not always drawn.

Columns and labels:
[1] = tested on: C-33A (cervical carcinoma); details: 10 μM, 72 hours
Protocol: (§1) These cells were seeded at an amount of 2×10^6 cells, and then added with the culture medium for cultivating the cells to a volume of 10 mL, followed by cultivation for 2 to 3 days. After counting the cell number, these cells were respectively plated in a 96-well plate, in which each well has a fixed cell number of 3000 and a volume of 100 μL.
(§2) After removing the culture medium in the 96-well plate, each well was added with 100 μL of 10 μM commercial drug and then placed for 72 hours. Thereafter, each well was further added with 100 μL of a diluted WST-1 solution (the dilution ratio for the culture medium: WST-1 stock solution (wt/wt) is 9:1).

[2] = tested on: PC-3 (prostate adenocarcinoma); details: 10 μM, 72 hours
Protocol: as §1, §2
(§3) Each cancer cell inhibitory experiment was repeated for 4 times, followed by calculation of the mean values thereof, which were shown in the following tables.

[3] = tested on: MCF-7 (mammary gland, adenocarcinoma); details: 10 μM, 72 hours
Protocol: as §1, §2

[4] = tested on: MDA-MB-231 (mammary gland, adenocarcinoma); details: 10 μM, 72 hours
Protocol: as §1, §2, §3

[5] = tested on: AGS (gastric adenocarcinoma); details: 10 μM, 72 hours
Protocol: as §1, §2, §3

[6] = tested on: HepG2 (hepatocellular carcinoma); details: 10 μM, 72 hours
Protocol: as §1, §2, §3

[7] = tested on: LoVo (colorectal adenocarcinoma); details: 10 μM, 72 hours
Protocol: as §1, §2, §3

AsPC-1 = details: 10 μM, 72 hours
Protocol: as §1, §2, §3

BxPC-3 = details: 10 μM, 72 hours
Protocol: as §1, §2, §3

[8] = tested on: SAS (tongue squamouscell carcinoma); details: 10 μM, 72 hours
Protocol: as §1, §2, §3

U2OS = details: 10 μM, 72 hours
Protocol: as §1, §2

[9] = tested on: A375 (amelanotic melanoma); details: 10 μM, 72 hours
Protocol: as §1, §2

HEK 293 (kidney) = details: 10 μM, 72 hours
Protocol: as §1, §2
(§4) Each cell inhibitory experiment was repeated for 4 times, followed by calculation of the mean values thereof, which were shown in the following tables.

[10] = tested on: BEAS-2B (lung epithelial); details: 10 μM, 72 hours
Protocol: as §1, §2, §4

Breast cancer = details: summary over cell lines, 10 μM, 72 hours
Protocol: as §1, §2

Ovarian cancer = details: summary over cell lines, 10 μM, 72 hours
Protocol: as §1, §2

Liver cancer = details: summary over cell lines, 10 μM, 72 hours
Protocol: as §1, §2

Colorectal cancer = details: summary over cell lines, 10 μM, 72 hours
Protocol: as §1, §2

Pancreatic cancer = details: summary over cell lines, 10 μM, 72 hours
Protocol: as §1, §2

Skin cancer = details: summary over cell lines, 10 μM, 72 hours
Protocol: as §1, §2

[11] = BEAS-2B normal lung epithelial cells, single experiment

Protocol for normal cells: as §1, §2, §4

CNCC[C@H](Oc1cccc2ccccc12)c1cccs1 [duloxetine HCl, Duloxetine hydrochloride]
Mean survival rate (%) ([1]; mean of 4 experiments): 40.7%
survival rate 0524-10 min ([1]; single experiment): 34.3%
survival rate 0526-10 min ([1]; single experiment): 52.4%
survival rate 0529-10 min ([1]; single experiment): 33.7%
survival rate 0531-10 min ([1]; single experiment): 42.4%
Mean survival rate (%) ([2]; mean of 4 experiments): 45.6%
survival rate PC-3-0524-10 min ([2]; single experiment): 45.0%
survival rate PC-3-0526-10 min ([2]; single experiment): 70.9%
survival rate PC-3-0529-10 min ([2]; single experiment): 41.4%
survival rate PC-3-0531-10 min ([2]; single experiment): 25.1%
Mean survival rate (%) ([3]; mean of 4 experiments): 31.2%
survival rate 0612-10 min ([3]; single experiment): 29.0%
survival rate 0614-10 min ([3]; single experiment): 37.3%
survival rate 0616-10 min ([3]; single experiment): 30.0%
survival rate 0619-10 min ([3]; single experiment): 28.5%
Mean (survival rate) ([4]; mean of 3 printed experiments): 65.9%
survival rate 0612-10 min ([4]; single experiment): 53.4%
survival rate 0614-10 min ([4]; single experiment): 70.2%
survival rate 0616-10 min ([4]; single experiment): 74.3%
Mean survival rate (%) ([5]; mean of 4 experiments): 23.5%
survival rate 0510-10 min ([5]; single experiment): 25.0%
survival rate 0512-10 min ([5]; single experiment): 15.9%
survival rate 0515-10 min ([5]; single experiment): 37.3%
survival rate 0517-10 min ([5]; single experiment): 15.8%
Mean survival rate (%) ([6]; mean of 4 experiments): 34.0%
survival rate 0524-20 min ([6]; single experiment): 14.8%
survival rate 0526-20 min ([6]; single experiment): 44.7%
survival rate 0529-20 min ([6]; single experiment): 37.7%
survival rate 0531-20 min ([6]; single experiment): 38.9%
Mean survival rate (%) ([7]; mean of 4 experiments): 47.3%
survival rate 0616-10 min ([7]; single experiment): 44.8%
survival rate 0619-10 min ([7]; single experiment): 63.4%
survival rate 0621-10 min ([7]; single experiment): 49.9%
survival rate 0623-10 min ([7]; single experiment): 31.0%
Mean survival rate (%) (AsPC-1; mean of 4 experiments): 60.3%
survival rate 1-4-30 min (AsPC-1; single experiment): 61.7%
survival rate 1-7-3-30 min (AsPC-1; single experiment): 75.7%
survival rate 1-7-4-30 min (AsPC-1; single experiment): 78.0%
survival rate 1-7-7-30 min (AsPC-1; single experiment): 26.0%
Mean survival rate (%) (BxPC-3; mean of 4 experiments): 54.0%
survival rate 3-4-30 min (BxPC-3; single experiment): 72.4%
survival rate 3-7-3-30 min (BxPC-3; single experiment): 62.1%
survival rate 3-7-4-30 min (BxPC-3; single experiment): 58.8%
survival rate 3-7-7-30 min (BxPC-3; single experiment): 22.7%
Survival rate (%) ([8]; Lingual cancer (SAS), summary table): 82.44%
Mean survival rate (%) ([8]; SAS, mean of 4 experiments): 82.4%
survival rate 6-26-10 min ([8]; SAS, single experiment): 45.7%
survival rate 6-28-10 min ([8]; SAS, single experiment): 88.9%
survival rate 6-30-10 min ([8]; SAS, single experiment): 96.2%
survival rate 7-3-10 min ([8]; SAS, single experiment): 98.9%
Survival rate (%) (U2OS; Osteosarcoma (U2OS), summary table): 35.09%
Mean survival rate (%) (U2OS; U2OS, mean of 4 experiments): 35.1%
survival rate 6-26-10 min (U2OS; U2OS, single experiment): 26.6%
survival rate 6-28-10 min (U2OS; U2OS, single experiment): 21.5%
survival rate 6-30-10 min (U2OS; U2OS, single experiment): 56.6%
survival rate 7-3-10 min (U2OS; U2OS, single experiment): 35.6%
Mean survival rate (%) ([9]; mean of 4 experiments): 31.5%
survival rate 0602-30 min ([9]; single experiment): 25.7%
survival rate 0605-10 min ([9]; single experiment): 16.2%
survival rate 0607-10 min ([9]; single experiment): 17.1%
survival rate 0609-10 min ([9]; single experiment): 67.0%
Mean survival rate (%) (HEK 293 (kidney); HEK 293 normal kidney cells, mean, single experiments not given): 62.4%
Survival rate (%) (HEK 293 (kidney); Kidney (HEK293 normal cells), summary table): 62.44%
Mean survival rate (%) ([10]; BEAS-2B normal lung epithelial cells, mean of 4 experiments): 72.5%
survival rate 0510-10 min [10, 11]: 59.5%
survival rate 0512-10 min [10, 11]: 76.3%
survival rate 0515-10 min [10, 11]: 74.7%
survival rate 0517-10 min [10, 11]: 79.6%
Survival rate (%) ([10]; Lung epithelial cells (BEAS-2B normal cells), summary table): 72.50%
Survival rate (%) (Breast cancer): 48.57%
Survival rate (%) (Ovarian cancer): 51.5%
Survival rate (%) (Liver cancer): 40.95%
Survival rate (%) (Colorectal cancer): 62.21%
Survival rate (%) (Pancreatic cancer): 57.2%
Survival rate (%) (Skin cancer): 39.79%
cytotoxicity to the normal cells (normal cells; normal cells): little or no cytotoxicity
selective effect between normal cells and tumor cells (normal cells; normal cells versus tumor cells): selective effect
